In patent US20050120392A1, “Transgenic zebrafish models for thrombosis” (priority 2002, published 2005):
“Also recorded” adds a separate entry of the source. Where two headings read alike, the source gives them in different places. Bridge positions count the residues as written; N and C are the ends. Square brackets hold non-standard residues; d marks the D form. Peptide text beside a SMILES is read from it. hArg = N=C(N)NCCCC[C@H](N)C(=O)O; Mpa = O=C(O)CCS

What was measured:
[1] = tested on: ADP-induced platelet aggregation; test: In vivo anti-thrombotic assay: ADP-induced aggregate formation in TG(GPIIb:eGFP) larvae; design: species or system zebrafish; conditions: for platelet aggregation in zebrafish (summary statement): in vivo
Experimental: (§1) Only larvae homozygous for the GPIIb-eGFP transgene, were used for the assay. […] Injection of compounds into the heart cavity of larvae was performed using a glass-pulled capillary needle ( 15 μm in diameter at the tip) attached to a microinjector. Phenol red (0.2%) was routinely used for all injections to ensure accurate injection into the heart cavity. All larvae were anaesthetized with tricaine during the injection and returned to fresh fish water before analysis. Fluorescence was observed using a stereomicroscope with a GFP specific filter set. […] The counts were done for sections of the larvae (FIG. 2) and later totaled for the larvae. […] In these experiments (morpholino), control larvae (ADP alone) had no moving platelets.

[2] = tested on: thrombin-induced platelet aggregation; test: In vivo anti-thrombotic assay: thrombin-induced aggregate formation in TG(GPIIb:eGFP) larvae; design: species or system zebrafish
Experimental: as §1

zebrafish larvae = assay type: in vivo
Experimental: Only larvae homozygous for the GPIIb-eGFP transgene, were used for the assay. Soaking experiments with anti-thrombotic compounds were initiated when larvae were 5 dpf and injections with thrombotic agents were performed the next day. Injection of compounds into the heart cavity of larvae was performed using a glass-pulled capillary needle (˜15 μm in diameter at the tip) attached to a microinjector. Phenol red (0.2%) was routinely used for all injections to ensure accurate injection into the heart cavity. All larvae were anaesthetized with tricaine during the injection and returned to fresh fish water before analysis. Fluorescence was observed using a stereomicroscope with a GFP specific filter set.

platelets = test: In vivo thrombosis assay: thrombotic agent injected into heart cavity of TG(GPIIb:eGFP) larvae; design: species or system zebrafish
Experimental: as §1, with “platelets. TG(GPIIb:GFP) zebrafish were bred to produce homozygous TG(GPIIb:eGFP) embryos. […] At 6 dpf, the larvae have developed a swim bladder and most (or all) of their yolk sac has disappeared.” for “platelets.”

GPIIb mRNA = test: GPIIb morpholino knockdown in ADP thrombosis assay; assay type: in vivo, zebrafish; conditions: 2.4 ng morpholino at 1-4 cell stage, 90 pmol ADP at 5-6 dpf, n=34
Text: (§2) For some experiments (aspirin, Reopro, Integrilin, Ticlopidine and hirudin), larvae were scored according to the number of stationary platelets observed. The counts were done for sections of the larvae (FIG. 2) and later totaled for the larvae. […] In these experiments (morpholino), control larvae (ADP alone) had no moving platelets.
(§3) P2Y12 (5′-[…]-3′) and GPIIb (5′-[…]-3′) morpholinos were purchased from Gene Tools (Philomath, Oreg.). Both of these morpholinos were designed to recognize the first 25 bases of coding sequence. Morpholino—(0.1 mM stock contained in 0.2% phenol red) or mock—(0.2% phenol red) injections were performed in one to four cell stage of homozygous TG(GPIIb:eGFP) zebrafish. These embryos were checked 2-4 hours after injection to eliminate non-fertilized or poorly developed eggs. The embryos were placed into Holtfretter's solution at 27° C. until used in the thrombosis assay (5-6 dpf). For the thrombosis assay, larvae were injected with 90 pmol of ADP, a concentration that immobilized all platelets in the larvae. A positive or negative effect was designated for each larva when there were moving or no moving platelets, respectively, after ADP challenge.

P2Y12 mRNA = test: P2Y12 morpholino knockdown in ADP thrombosis assay; assay type: in vivo, zebrafish; conditions: 2.4 ng morpholino, 90 pmol ADP
Text: as §2, §3

[3] = 5 dpf larvae soaked overnight in varying concentrations, 90 pmol ADP next day
[4] = thrombin 3.38 ng (0.018 NIH unit)
[5] = GPIIb-eGFP transgenic (homozygous), zebrafish, in vivo
[6] = Plavix approximately 0.2-1 μg/ml overnight

## Reopro: human/murine chimeric antibody, GPIIb/IIIa antagonist
[1]; Reopro 0.5-5 μg/ml overnight soak plus 120 ng injected 10 min before ADP
  ADP-induced microaggregate formation: dose-dependently inhibited
[1]; Reopro injection alone (120 ng or less), no overnight soak
  ADP-induced aggregation of platelets: did not antagonize
[1]; Reopro overnight soak plus 60 ng injected
  ADP-induced microaggregate formation: no effect

## CC1CC(=O)NN=C1c1cc(-n2ccnc2)cs1 (centres unmarked) [motapizone]
[1]; motapizone 50 μM overnight soak
  ADP-induced aggregation: Partial inhibition
[1]; motapizone 250 and 100 μM, overnight soak of 5 dpf larvae
  ADP-induced microaggregate formation: effective in blocking
[1]; motapizone injected 5 min before ADP challenge
  action of ADP on platelet aggregation: ineffective
[1]; motapizone, concentrations lower than 50 μM
  ADP-induced aggregation: ineffective
[1]
  platelet aggregation in zebrafish (summary statement): decreases platelet aggregation
[1]; listed as Motapizone
  platelet aggregation in zebrafish (summary statement): effective in reducing

## hirudin
[1]; hirudin 0.029 unit, 90 pmol ADP
  ADP-induced aggregation: did not have any effect
[2]; hirudin 0.029 unit given simultaneously with thrombin 0.018 NIH unit
  thrombin-induced aggregate formation: no aggregation was observed; also recorded: inhibited

## N=C(N)NCCCC[C@@H]1NC(=O)CCSSC[C@@H](C(N)=O)NC(=O)[C@@H]2CCCN2C(=O)[C@H](Cc2c[nH]c3ccccc23)NC(=O)[C@H](CC(=O)O)NC(=O)CNC1=O [Integrilin, eptifibatide] ([Mpa][hArg]GDWPC-NH2; disulfide 1-7)
[1]; [3]
  ADP-induced microaggregate formation: dose-dependent inhibition; also recorded: dose-dependently prevented
[1]; Integrilin 0.25-1.0 mg/ml overnight soak
  number of platelet aggregates compared to control group: no change
Zebrafish larvae; Integrilin 5 mg/ml
  survival after overnight treatment: all larvae died

## CCCCS(=O)(=O)N[C@@H](Cc1ccc(OCCCCC2CCNCC2)cc1)C(=O)O [Aggrastat, tirofiban]
[1]; Aggrastat 100 μg/ml soak 24 hours plus 240 ng injected 10 min before ADP
  ADP-induced aggregation: inhibited
[1]; Aggrastat 10-50 μg/ml overnight
  ADP-induced aggregation: ineffective
[1]; Aggrastat soaking alone or injection alone
  ADP-induced aggregate formation: did not antagonize

## CNC[C@H](O)c1ccc(O)c(O)c1 [epinephrine]
platelets; epinephrine 18 pg in conjunction with collagen
  effect of collagen on platelet aggregation: did not enhance

## Nc1ncnc2c1ncn2[C@@H]1O[C@H](COP(=O)(O)OP(=O)(O)O)[C@@H](O)[C@H]1O [ADP]
platelets; 90 pmol ADP
  number of macroaggregates compared with phenol red-injected group: not significant
platelets; 90 pmol ADP into heart cavity
  platelet movement after injection: most or all of the platelets within the larvae stopped moving; also recorded: a complete inhibition of platelet movement was observed
  time until platelets stopped moving: ≤ 5 min
platelets; 90 pmol ADP into heart cavity, 6-7 dpf larvae, n=16
  microaggregates found in each injected larva: about 38±3 microaggregates
platelets; 90 pmol ADP, observed for up to 8 hours
  duration of the effect: several hours
platelets; ADP, concentrations lower than 90 pmol
  platelet movement after injection: did not induce a complete inhibition of platelet movement
Zebrafish larvae; 90 pmol ADP into heart cavity
  lethality (beating heart): not lethal
Zebrafish larvae; 180 pmol ADP into heart cavity, n=8
  time within which the larva died: 5 to 10 min

## thrombin
platelets; [4]
  duration of arrested platelet movement: 30 min
  time after which platelets began to move more freely: ≤ 25 min
platelets; thrombin 3.38 ng (0.018 NIH unit) into heart cavity
  platelet aggregation / arrest after injection: induced platelet aggregation; also recorded: most of the platelets were arrested
platelets; thrombin 3.38 ng (0.018 NIH unit), 5 min after injection, n=15
  platelets arrested: 85-90%
platelets; thrombin 3.38 ng, within an hour after injection
  platelet mobility (recovery): most platelets were mobile

## 5′-GACTGAATTCCAGTTTCTTGTCCAT-3′ (morpholino backbone, further chemistry not given here) [GPIIb morpholino]
GPIIb mRNA
  tested larvae with moving platelets after ADP injection: 76.5%

## 5′-AGCTGAGCTGCGTTGTTTGCTCCAT-3′ (morpholino, further chemistry not given here) [P2Y12 morpholino]
P2Y12 mRNA
  effectiveness (larvae with moving platelets after ADP): 50%

## CC(=O)Oc1ccccc1C(=O)O [aspirin, acetylsalicylic acid]
[1]; [3]
  ADP-induced microaggregate formation: prevented
[1]; aspirin 115 μg/ml, no ADP
  microaggregate count within control phenol red-injected larvae: trend toward a decrease
[1]; aspirin 95 and 105 μg/ml, overnight soak before ADP challenge
  ADP-induced microaggregate formation: partially prevented
[1]
  platelet aggregation in zebrafish (summary statement): effective at inhibiting
Zebrafish larvae; aspirin 125 μg/ml
  survival after overnight treatment: the larvae died
Zebrafish larvae; aspirin alone
  effect on platelet movement or development of the larvae: no adverse effect

## Clc1ccccc1CN1CCc2sccc2C1 [Ticlopidine]
Zebrafish larvae; [5]
  concentration at which larvae did not survive the overnight treatment: ≥ 10 µM

## COC(=O)[C@H](c1ccccc1Cl)N1CCc2sccc2C1 [Plavix, Clopidogrel]
[1]; [6]
  ADP-induced aggregate formation: partial inhibition
[1]
  platelet aggregation in zebrafish (summary statement): effective at inhibiting
Zebrafish larvae; [5]
  lethal dose: ≥ 5 µg/mL
[2]; [6]
  aggregation induced by a high concentration of thrombin: not effective
